Marks after values point to notes of the source that are not given here.
Key:
[1] = tested on: workers who handled the treated timber; assay: OH&S testing, handling of treated timber; assay type: in vivo
Description: (§1) Until this invention, adequately protecting timber against termite attack required a treatment which provided significant penetration of the sapwood. This was the case due to the fact that other available active ingredients degraded very quickly when exposed to increased temperature and Ultra Violet (UV) light. The penetration was required to protect the active ingredient (“active”) from the degradation. The most common used active in the 1990's which penetrated the timber was Permethrin. […] Thus, when using Permethrin, it was required to penetrate into the timber otherwise the product would degrade and not protect the timber. […] This problem was so severe that it made the use of Deltamethin unviable.
(§2) This increased stability together with the repellent effects of Bifenthrin combined to allow only a superficial treating of the timber where the need for significant penetration is not required.

[2] = Degradation on exposure to temperature and UV light; assay type: physicochemical
Description: as §1, §2

[3] = tested on: Mastotermes darwiniensis; assay: Field drum test (AWPA protocols), treated radiata pine exposed to termites; assay type: in vivo; design: Mean score: scale not given here; conditions: for Mean score / Pass or Fail: radiata pine, field
Procedure: (§3) The rates required to achieve protection are 4 and 23 g/m3 applied on the surface of 35×90 mm radiata pine for Coptotermes acinaciformis and Mastotermes darwiniensis respectively. These studies were conducted using the drum test described by the AWPA protocols.

[4] = tested on: Coptotermes acinaciformis; assay: as above; assay type: in vivo; design: key to Mean rating: 1: Sound; 2: Superficial attack-grazing; Penetration - >3 mm in depth; 4: Attack Slight −10-25% mass loss; Attack Moderate 25-50% mass loss; 6: Attack Severe 50-70% mass loss; Attack Destroyed 75-100% mass loss; conditions: for Mean rating / Pass or Fail / Success (Pass or Fail): radiata pine, field
Procedure: as §3
Additives can be incorporated during the application of bifenthrin, for example colors, fire retardants, water repellents and resins.
A modification of superficial treatments is the partial introduction of bifenthrin into the wood. The result of this is an envelope around the cross section of the timber board or wood product or just a partial penetration.

[5] = tested on: Coptotermes acinaciformis; assay: Timber protection using standard practice in the timber industry; assay type: in vivo
Description: (§4) The rates are 5 and 20 g/m3 respectively.

[6] = tested on: Mastotermes darwiniensis; assay: as above; assay type: in vivo
Description: as §4

[7] = tested on: termites; assay: Simulated house frames exposed to 120,000 termites; assay type: in vivo; conditions: superficial treatment, ends not treated; six months of exposure, 120,000 termites
Description: The ends of the samples were not treated. Simulated frames were exposed to 120,000 termites.

[8] = Solubility in water; assay type: physicochemical
Description: (§5) These two attributes of bonding & water insolubility, together with the abovementioned stability when exposed to temperature and UV result in the chemical staying on the timber when exposed to rain, sunlight, temperature or handling. No other chemicals used in the past have such characteristics which would allow a mere superficial treatment.

[9] = Bonding to timber; assay type: physicochemical; conditions: compared with Permethrin
Description: as §5

[10] = 15 g/m^3, superficial treatment
[11] = 23 g/m^3, superficial treatment
[12] = 38 g/m^3, superficial treatment
[13] = applied on the surface of 35×90 mm radiata pine (dipping or spraying)
[14] = 4 g/m^3 + water repellents, superficial treatment
[15] = 8 g/m^3 + water repellents, superficial treatment
[16] = 15 g/m^3 + water repellents, superficial treatment
[17] = 23 g/m^3 + water repellents, superficial treatment
[18] = Partial penetration more than 3 mm, 6-12 g/m^3
[19] = Partial penetration more than 3 mm, 13-20 g/m^3

CC1(C)[C@H](C(=O)O[C@H](C#N)c2cccc(Oc3ccccc3)c2)[C@@H]1C=C(Br)Br [Deltamethrin]
Skin irritation / parasthesia on exposure to treated timber [1]: all workers who handled the treated timber complained of a parasthesia or skin irritation
Resistance to UV light [2]: degrade rapidly when exposed to UV light

CC1(C)C(C=C(Cl)Cl)C1C(=O)OCc1cccc(Oc2ccccc2)c1 (stereo not drawn) [permethrin, Permethrin]
Mean score ([3]; 0.02% m/m permethrin (LOSP)): 1.8
Pass or Fail ([3]; 0.02% m/m permethrin (LOSP)): Pass
Mean score ([3]; .007% m/m permethrin (LOSP)): 2.2
Pass or Fail ([3]; .007% m/m permethrin (LOSP)): Fail
Mean score ([3]; .013% m/m permethrin (LOSP)): 2.2
Pass or Fail ([3]; .013% m/m permethrin (LOSP)): Fail
Mean rating ([4]; 0.007% m/m OD permethrin): 2
Pass or Fail ([4]; 0.007% m/m OD permethrin): Fail
Mean rating ([4]; 0.013% m/m OD permethrin): 1.8
Pass or Fail ([4]; 0.013% m/m OD permethrin): Fail
Mean rating ([4]; 0.02% m/m OD permethrin): 1.3
Pass or Fail ([4]; 0.02% m/m OD permethrin): Pass
Resistance to UV light [2]: very low resistance to UV light
Degradation on exposure to temperature ([2]; heat): degrade when exposed to temperatures above 25 degrees centigrade

Cc1c(COC(=O)[C@@H]2[C@H](/C=C(\Cl)C(F)(F)F)C2(C)C)cccc1-c1ccccc1 (racemic) [Bifenthrin]
Mean score ([3]; 4 g/m^3, superficial treatment): 3.3
Pass or Fail ([3]; 4 g/m^3, superficial treatment): Fail
Mean score ([3]; 8 g/m^3, superficial treatment): 2.2
Pass or Fail ([3]; 8 g/m^3, superficial treatment): Fail
Mean score [3, 10]: 2.0
Pass or Fail [3, 10]: Fail
Mean score [3, 11]: 1.7
Pass or Fail [3, 11]: Pass
Mean score [3, 12]: 1.0
Pass or Fail [3, 12]: Pass
Rate required to achieve protection [3, 13]: 23 g/m3
Mean rating [4, 14]: 1.2
Success (Pass or Fail) [4, 14]: Pass
Mean rating [4, 15]: 1.3
Success (Pass or Fail) [4, 15]: Pass
Mean rating [4, 16]: 1.2^b
Success (Pass or Fail) [4, 16]: Pass
Mean rating [4, 17]: 1.2
Success (Pass or Fail) [4, 17]: Pass
Mean rating [4, 18]: 1.0
Success (Pass or Fail) [4, 18]: Pass
Mean rating [4, 19]: 1.0
Success (Pass or Fail) [4, 19]: Pass
Repellent effect with added water repellents ([4]; addition of water repellents): did not mask the repellent effect
Rate required to achieve protection [4, 13]: 4 g/m3
Rate required to protect timber [5]: 5 g/m3
Rate required to protect timber [6]: 20 g/m3
Attack of simulated frames [7]: the treated frames were not
Skin irritation / parasthesia on exposure to treated timber [1]: does not produce any skin irritation
Degradation through exposure to UV or heat ([2]; superficially treated timber): significant penetration was not required to protect the active against degradation
Solubility in water [8]: virtually insoluble in water
Bonding co-efficient [9]: significantly greater than that of Permethrin

Source: US20060127432A1, “Surface treatment for wood and wood products” (priority 2002, published 2006)
